Test results: PubChem BioAssay AID1963868 (Molecular Pharmacology Branch, DTP, NCI, 2024)

Tested on: KRAS PDC tumor spheroids (HUVEC+MSC), viability
Assay: Anticancer human tumor 254851-301-R-J1-PDC patient-derived colon carcinoma cell line growth inhibition [KRAS2]
Conditions: for viability, T/C: stronger effect = lower value
How it was run: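 KRAS-mutant tumor cells were grown as spheroids with HUVEC endothelial cells and human MSCs as stroma. Targeted agents were tested alone and with KRAS pathway inhibitors. Doses started at or near clinical Cmax, or 10 microM, descending half-log.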

[1] = curve of first compound, second compound 0.1 µM
[2] = curve of first compound, second compound 0.316 µM
[3] = curve of first compound, second compound 1 µM
[4] = curve of first compound, second compound 3.16 µM
[5] = curve of first compound, second compound 10 µM
[6] = second compound 0.1 µM, first compound 0.0316 µM
[7] = second compound 0.1 µM, first compound 0.1 µM
[8] = second compound 0.1 µM, first compound 0.316 µM
[9] = second compound 0.1 µM, first compound 1 µM
[10] = second compound 0.1 µM, first compound 3.16 µM
[11] = second compound 0.316 µM, first compound 0.0316 µM
[12] = second compound 0.316 µM, first compound 0.1 µM
[13] = second compound 0.316 µM, first compound 0.316 µM
[14] = second compound 0.316 µM, first compound 1 µM
[15] = second compound 0.316 µM, first compound 3.16 µM
[16] = second compound 1 µM, first compound 0.0316 µM
[17] = second compound 1 µM, first compound 0.1 µM
[18] = second compound 1 µM, first compound 0.316 µM
[19] = second compound 1 µM, first compound 1 µM
[20] = second compound 1 µM, first compound 3.16 µM
[21] = second compound 3.16 µM, first compound 0.0316 µM
[22] = second compound 3.16 µM, first compound 0.1 µM
[23] = second compound 3.16 µM, first compound 0.316 µM
[24] = second compound 3.16 µM, first compound 1 µM
[25] = second compound 3.16 µM, first compound 3.16 µM
[26] = second compound 10 µM, first compound 0.0316 µM
[27] = second compound 10 µM, first compound 0.1 µM
[28] = second compound 10 µM, first compound 0.316 µM
[29] = second compound 10 µM, first compound 1 µM
[30] = second compound 10 µM, first compound 3.16 µM
[31] = second compound 0.1 µM, first compound 0.000316 µM
[32] = second compound 0.1 µM, first compound 0.001 µM
[33] = second compound 0.1 µM, first compound 0.00316 µM
[34] = second compound 0.1 µM, first compound 0.01 µM
[35] = second compound 0.316 µM, first compound 0.000316 µM
[36] = second compound 0.316 µM, first compound 0.001 µM
[37] = second compound 0.316 µM, first compound 0.00316 µM
[38] = second compound 0.316 µM, first compound 0.01 µM
[39] = second compound 1 µM, first compound 0.000316 µM
[40] = second compound 1 µM, first compound 0.001 µM
[41] = second compound 1 µM, first compound 0.00316 µM
[42] = second compound 1 µM, first compound 0.01 µM
[43] = second compound 3.16 µM, first compound 0.000316 µM
[44] = second compound 3.16 µM, first compound 0.001 µM
[45] = second compound 3.16 µM, first compound 0.00316 µM
[46] = second compound 3.16 µM, first compound 0.01 µM
[47] = second compound 10 µM, first compound 0.000316 µM
[48] = second compound 10 µM, first compound 0.001 µM
[49] = second compound 10 µM, first compound 0.00316 µM
[50] = second compound 10 µM, first compound 0.01 µM
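Also: spheroids exposed to compounds for seven days before readout.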
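For viability, T/C in this document: 100% = DMSO vehicle control luminescence of the spheroids.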

Work on `COc1cc(Nc2ncc3c(n2)-c2ccc(Cl)cc2C(c2c(F)cccc2OC)=NC3)ccc1C(=O)O` + CNCc1ccccc1-c1csc(C(C)Nc2nc(C)nc3cc(OC)c(OC)cc23)c1 yielded an IC50 [1] of 82.8 nM, an IC50 [2] of 83.4 nM and an IC50 [3] of 87.1 nM. The IC50 [4] was less than 31.6 nM, the IC50 [5] was less than 31.6 nM and the viability, T/C [6] was 80%. It also gave a viability, T/C [7] of 40.1%, a viability, T/C [8] of 29.3% and a viability, T/C [9] of 26.2%. It also gave a viability, T/C [10] of 18.5%, a viability, T/C (second compound 0.1 µM, first compound 10 µM) of 9.63% and a viability, T/C [11] of 77.9%. For the same molecule, the viability, T/C [12] was 39.5%, the viability, T/C [13] was 31.1% and the viability, T/C [14] was 27%. The viability, T/C [15] was 17.7%, the viability, T/C (second compound 0.316 µM, first compound 10 µM) was 9.95% and the viability, T/C [16] was 82%. The viability, T/C [17] was 39.5%, the viability, T/C [18] was 32.8% and the viability, T/C [19] was 28.6%. For the same molecule, the viability, T/C [20] was 21.6%, the viability, T/C (second compound 1 µM, first compound 10 µM) was 9.92% and the viability, T/C [21] was 49.5%. The viability, T/C [22] was 22.9%, the viability, T/C [23] was 20.6% and the viability, T/C [24] was 12.5%. For the same molecule, the viability, T/C [25] was 6.88%, the viability, T/C (second compound 3.16 µM, first compound 10 µM) was 4.66% and the viability, T/C [26] was 0.15%. For the same molecule, the viability, T/C [27] was 0.13%, the viability, T/C [28] was 0.12% and the viability, T/C [29] was 0.1%. For the same molecule, the viability, T/C [30] was 0.11% and the viability, T/C (second compound 10 µM, first compound 10 µM) was 0.14%.

With `Cn1nccc1Nc1nccc(-c2cc3c(s2)C(C)(C)N(CCN2CCOCC2)C3=O)n1` the viability, T/C (compound 0.0316 µM) was 92.9% [middle of 5 runs], the viability, T/C (compound 0.1 µM) was 98.1% [middle of 5 runs] and the viability, T/C (compound 0.316 µM) was 102% [middle of 5 runs]. For the same molecule, the viability, T/C (compound 1 µM) was 89.6% [middle of 5 runs], the viability, T/C (compound 3.16 µM) was 51.9% [middle of 5 runs] and the viability, T/C (compound 10 µM) was 4.24% [middle of 5 runs]. The IC50 (curve of compound) was 3.28 µM [middle of 5 runs].

Molecule `CC(=O)Nc1cccc(-n2c(=O)n(C3CC3)c(=O)c3c(Nc4ccc(I)cc4F)n(C)c(=O)c(C)c32)c1` + C=CC(=O)N1CCN(c2nc(=O)n(-c3c(C)ccnc3C(C)C)c3nc(-c4c(O)cccc4F)c(F)cc23)C(C)C1 has an IC50 [1] of 6.27 nM, an IC50 [2] of 5.14 nM and an IC50 [3] of 6.52 nM. The IC50 [4] was 6.44 nM, the IC50 [5] was 5.08 nM and the viability, T/C (second compound 0.1 µM, first compound 0.0001 µM) was 104%. For the same molecule, the viability, T/C [31] was 105%, the viability, T/C [32] was 89.5% and the viability, T/C [33] was 84.4%. For the same molecule, the viability, T/C [34] was 27.2%, the viability, T/C [6] was 3.31% and the viability, T/C (second compound 0.316 µM, first compound 0.0001 µM) was 102%. The viability, T/C [35] was 103%, the viability, T/C [36] was 87.9% and the viability, T/C [37] was 77.4%. For the same molecule, the viability, T/C [38] was 13%, the viability, T/C [11] was 3.29% and the viability, T/C (second compound 1 µM, first compound 0.0001 µM) was 102%. The viability, T/C [39] was 96.6%, the viability, T/C [40] was 93.9% and the viability, T/C [41] was 74.3%. It also gave a viability, T/C [42] of 35.5%, a viability, T/C [16] of 3.32% and a viability, T/C (second compound 3.16 µM, first compound 0.0001 µM) of 98.5%. For the same molecule, the viability, T/C [43] was 99.4%, the viability, T/C [44] was 85.1% and the viability, T/C [45] was 77%. For the same molecule, the viability, T/C [46] was 34%, the viability, T/C [21] was 3.35% and the viability, T/C (second compound 10 µM, first compound 0.0001 µM) was 105%. The viability, T/C [47] was 105%, the viability, T/C [48] was 96.9% and the viability, T/C [49] was 75%. For the same molecule, the viability, T/C [50] was 14.6% and the viability, T/C [26] was 3.11%.

For `CC(=O)OC12COC1CC(O)C1(C)C(=O)C(O)C3=C(C)C(OC(=O)C(O)C(NC(=O)OC(C)(C)C)c4ccccc4)CC(O)(C(OC(=O)c4ccccc4)C21)C3(C)C` (configuration not stated) + COc1cc2nc(C)nc(NC(C)c3cc(N)cc(C(F)(F)F)c3)c2cc1OC1CCOC1, the IC50 [1] was 180 nM, the IC50 [2] was 143 nM and the IC50 [3] was 166 nM. For the same molecule, the IC50 [4] was 66.2 nM, the IC50 [5] was 69.7 nM and the viability, T/C [34] was 95%. It also gave a viability, T/C [6] of 87%, a viability, T/C [7] of 62.2% and a viability, T/C [8] of 38.4%. It also gave a viability, T/C [9] of 27%, a viability, T/C [10] of 24.5% and a viability, T/C [38] of 96.1%. The viability, T/C [11] was 92.7%, the viability, T/C [12] was 56.4% and the viability, T/C [13] was 34.6%. The viability, T/C [14] was 24.7%, the viability, T/C [15] was 23.3% and the viability, T/C [42] was 82.2%. For the same molecule, the viability, T/C [16] was 78.7%, the viability, T/C [17] was 62.1% and the viability, T/C [18] was 34.6%. It also gave a viability, T/C [19] of 26.4%, a viability, T/C [20] of 24.5% and a viability, T/C [46] of 71.8%. The viability, T/C [21] was 67%, the viability, T/C [22] was 40.3% and the viability, T/C [23] was 28.1%. The viability, T/C [24] was 24.9%, the viability, T/C [25] was 24.2% and the viability, T/C [50] was 72.4%. For the same molecule, the viability, T/C [26] was 68.9%, the viability, T/C [27] was 41.4% and the viability, T/C [28] was 25%. The viability, T/C [29] was 25.1% and the viability, T/C [30] was 24.4%.

`CCN1CCN(Cc2ccc(Nc3ncc(F)c(-c4cc(F)c5nc(C)n(C(C)C)c5c4)n3)nc2)CC1` + C=CC(=O)N1CCN(c2nc(=O)n(-c3c(C)ccnc3C(C)C)c3nc(-c4c(O)cccc4F)c(F)cc23)C(C)C1 gave an IC50 [1] of 960 nM, an IC50 [2] greater than 1000 nM and an IC50 [3] greater than 1000 nM. For the same molecule, the IC50 [4] was 707 nM, the IC50 [5] was greater than 1000 nM and the viability, T/C [33] was 114%. The viability, T/C [34] was 101%, the viability, T/C [6] was 96.9% and the viability, T/C [7] was 83.2%. For the same molecule, the viability, T/C [8] was 73.2%, the viability, T/C [9] was 47.1% and the viability, T/C [37] was 113%. For the same molecule, the viability, T/C [38] was 107%, the viability, T/C [11] was 90.4% and the viability, T/C [12] was 82.6%. It also gave a viability, T/C [13] of 73.2%, a viability, T/C [14] of 50.9% and a viability, T/C [41] of 104%. The viability, T/C [42] was 101%, the viability, T/C [16] was 92.8% and the viability, T/C [17] was 78.2%. For the same molecule, the viability, T/C [18] was 75.7%, the viability, T/C [19] was 48.4% and the viability, T/C [45] was 89.5%. For the same molecule, the viability, T/C [46] was 87.4%, the viability, T/C [21] was 97.1% and the viability, T/C [22] was 59.7%. The viability, T/C [23] was 71.4%, the viability, T/C [24] was 42.6% and the viability, T/C [49] was 96.4%. The viability, T/C [50] was 105%, the viability, T/C [26] was 102% and the viability, T/C [27] was 83.2%. It also gave a viability, T/C [28] of 73.8% and a viability, T/C [29] of 56%.

With `CN(C)C/C=C/C(=O)Nc1cc2c(Nc3ccc(F)c(Cl)c3)ncnc2cc1O[C@H]1CCOC1` + CNCc1ccccc1-c1csc(C(C)Nc2nc(C)nc3cc(OC)c(OC)cc23)c1 the IC50 [1] was greater than 100 nM, the IC50 [2] was greater than 100 nM and the IC50 [3] was greater than 100 nM. For the same molecule, the IC50 [4] was greater than 100 nM, the IC50 [5] was less than 0.316 nM and the viability, T/C [31] was 99.9%. It also gave a viability, T/C [32] of 105%, a viability, T/C [33] of 96.4% and a viability, T/C [34] of 94.7%. The viability, T/C [6] was 93.1%, the viability, T/C [7] was 72.8% and the viability, T/C [35] was 104%. It also gave a viability, T/C [36] of 98.3%, a viability, T/C [37] of 90.4% and a viability, T/C [38] of 87.9%. It also gave a viability, T/C [11] of 82.8%, a viability, T/C [12] of 72.3% and a viability, T/C [39] of 97.1%. The viability, T/C [40] was 89.2%, the viability, T/C [41] was 84.6% and the viability, T/C [42] was 82%. The viability, T/C [16] was 75.5%, the viability, T/C [17] was 79.9% and the viability, T/C [43] was 84%. For the same molecule, the viability, T/C [44] was 82.1%, the viability, T/C [45] was 81.8% and the viability, T/C [46] was 75.1%. For the same molecule, the viability, T/C [21] was 73.8%, the viability, T/C [22] was 62.2% and the viability, T/C [47] was 0.17%. The viability, T/C [48] was 0.18%, the viability, T/C [49] was 0.18% and the viability, T/C [50] was 0.16%. The viability, T/C [26] was 0.17% and the viability, T/C [27] was 0.21%.
